The target in assay [1] is T1, 26S proteasome holoenzyme (proteolytic core sites) (Homo sapiens, UniProt P28074).
T1 construct: gene PSMB5; 26S holoenzyme (20S core with one or two 19S caps) purified from HEK293T via Rpn11-His6-TEV-biotin, TEV eluted; with Proteasome subunit beta type-1; Proteasome subunit beta type-2; Proteasome subunit beta type-3; Proteasome subunit beta type-4; Proteasome subunit alpha type-1; Proteasome subunit alpha type-2; Proteasome subunit alpha type-3; Proteasome subunit alpha type-4; Proteasome subunit alpha type-5; Proteasome subunit alpha type-6; Proteasome subunit alpha type-7; 26S proteasome non-ATPase regulatory subunit 14
Put plainly: AMC fluorescence ([…] nm). The format is biochemical. The following applies: 1 μM substrate, 40 nM proteasome, alone or with heparin or tau aggregates.

Assay [2] has as its target T2, α-synuclein (αS), fibrils (Homo sapiens, UniProt P37840).
T2 construct: gene SNCA; untagged wild-type recombinant from E. coli BL21(DE3) pLysS; fibrils assembled in PBS with shaking
Put plainly: TIRF single-aggregate fluorescence. It is filed as binding. The following applies: 30 nM pFTAA in PBS, 100 nM αS (monomer equivalent); binds amyloid fibrils.

The record followed here is article PMC6381791, “Filamentous Aggregates Are Fragmented by the Proteasome Holoenzyme” (Cell Reports, 2019).

Numbered stars: 1 amine (or outer) side, 2 acyl side, 3 side chain; on linkers, the order of the positions; unused ones are H or OH. Peptide text beside a SMILES is read from it. * marks the point of attachment. AMC = Cc1cc(=O)oc2cc(N*)ccc12; Suc = O=C(CCC(=O)[*:2])[*:1]

For the compound `Cc1cc(=O)oc2cc(NC(=O)[C@H](Cc3ccc(O)cc3)NC(=O)[C@@H](NC(=O)[C@H](CC(C)C)NC(=O)[C@H](CC(C)C)NC(=O)CCC(=O)O)C(C)C)ccc12` [LLVY-AMC] (Suc-LLVY-{AMC}), the “AMC fluorescence (340/440 nm)” value in assay [1] is reported as “proteasomal peptidase activity against a model substrate, suc-Leu-Leu-Val-Tyr-7-amino-4-methylcoumarin (LLVY-AMC)”. For `O=C(O)Cc1cc(-c2ccc(C(=O)O)s2)sc1-c1ccc(-c2sc(-c3ccc(C(=O)O)s3)cc2CC(=O)O)s1` [pFTAA], the TIRF single-aggregate fluorescence entry in assay [2] was “Fibrils assembled from αS could be reproducibly detected”.
